Laboratory results from patent publication US20250025500A1, “PHOSPHATASE INHIBITORS AS NK CELLS MODULATORS FOR THE TREATMENT OF CANCER” (Kanyr Pharma Inc., priority 2021, published 2025).

Assays:
[1] = system: NK-92 cells; experiment: Lytic granule protein expression in NK-92 (flow cytometry, Western blot); type: cell-based, Human
Method: Total cell lysate was prepared with modified RIPA buffer (1M Tris-HCl (pH 7.5), 5M NaCl, 0.25% sodium deoxycholate, 10% NP-40 and 10 mM sodium fluoride) supplemented with ethylenediaminetetraacetic acid (EDTA)-free protease inhibitor (Roche™) and 2 mM sodium orthovanadate (Sigma-Aldrich™). Protein levels were quantified by bicinchoninic acid (BCA) assay. Protein lysate was separated by 10% SDS-PAGE and Western analysis was performed using primary antibodies listed in the tables below followed with horseradish peroxidase (HRP, 1:10,000, Jackson ImmunoResearch™) conjugated secondary antibodies.
NK-92 cells pre-treated with L598 (30 μM) or vehicle control were stimulated with K-562 tumor target cells [effector: target (E:T) at 1:1] or PMA/lonomycin (1 μg/mL each) or no-stimulation control with K-562 complete media, respectively. Anti-CD107a or LAMP-1 antibody (1:100, PE/Cy7 conjugated, clone H4A3, from BioLegend®) was added to cells at the start of degranulation assay. Golgi stop (containing Monensin, 1 μM) and Golgi plug (containing Brefeldin A, 4 μg/mL) were added to cells one hour after degranulation assay started and were kept until the end of the 6-hour-degranulation assay. Intracellular staining of GrB (1:40, PE conjugated, clone QA18A28, from BioLegend®) and PRF (1:40, FITC conjugated, clone B-D48, from BioLegend®) were performed with the Fixation/Permeabilization Solution Kit (BD® Biosciences) according to the manufacture's protocol. Cells were stained with fixable viability dye (1:2000) for 20 mins on ice and in dark, and blocked with FcBlock (1:20, diluted in 1× Perm/Wash buffer, Human truStain FcX from BioLegend®) for 5 mins at room temperature and in dark before intracellular staining. Cell gating and percentage of population quantification was based on no-stimulation control. For kinetics of degranulation assay, measurements were taken over three hours at 15 mins, 30 mins, 60 mins, 120 mins and 180 mins, with L598 (30 μM, three days) treated group and vehicle control group under the condition of tumor target cell K-562 stimulation (E: T at 1:1) or no stimulation. Intracellular cytolytic granule contents GrA, GrB and PRF were measured as mentioned previously.

[2] = system: NK-92 cells; experiment: NK-92 viability and proliferation under inhibitor treatment; type: cell-based, Human; settings: various IL-2 concentration, vs vehicle control

7-bromo-6-phosphono(difluoro-methyl)-3-napthalenonitrile [L598]
thresholds of maximal expression of perforin and granzyme B ([1]; IL-2 titration, 30 μM): upregulated | fold increase of perforin and granzyme B MFI over vehicle control ([1]; day three, IL-2 1250 IU/mL, 30 μM): approximately two-fold | protein expression of perforin and granzyme B ([1]; gradual increasing concentration, three days): upregulated in a dosage dependent manner | maximal expression of lytic granules after withdrawal, vs control ([1]; inhibitor withdrawn three consecutive days): similar | fold change of perforin and granzyme B after withdrawal ([1]; inhibitor withdrawn three consecutive days, IL-2 titration): around one-fold | fold change of intracellular perforin and granzyme over control ([1]; one-day treatment, IL-2 titration, 30 μM): started improving | granzyme A protein expression ([1]; with or without inhibitor treatment): relatively stable | granzyme B expression, treatment vs control group, without IL-2 ([1]; without IL-2 stimulation): almost no difference | NK-92 proliferation [2]: proliferate slightly faster
